The target in test [1] is T1, Toll-like receptor 7 (Homo sapiens, UniProt Q9NYK1).
T1 sequence (Q9NYK1 whole entry): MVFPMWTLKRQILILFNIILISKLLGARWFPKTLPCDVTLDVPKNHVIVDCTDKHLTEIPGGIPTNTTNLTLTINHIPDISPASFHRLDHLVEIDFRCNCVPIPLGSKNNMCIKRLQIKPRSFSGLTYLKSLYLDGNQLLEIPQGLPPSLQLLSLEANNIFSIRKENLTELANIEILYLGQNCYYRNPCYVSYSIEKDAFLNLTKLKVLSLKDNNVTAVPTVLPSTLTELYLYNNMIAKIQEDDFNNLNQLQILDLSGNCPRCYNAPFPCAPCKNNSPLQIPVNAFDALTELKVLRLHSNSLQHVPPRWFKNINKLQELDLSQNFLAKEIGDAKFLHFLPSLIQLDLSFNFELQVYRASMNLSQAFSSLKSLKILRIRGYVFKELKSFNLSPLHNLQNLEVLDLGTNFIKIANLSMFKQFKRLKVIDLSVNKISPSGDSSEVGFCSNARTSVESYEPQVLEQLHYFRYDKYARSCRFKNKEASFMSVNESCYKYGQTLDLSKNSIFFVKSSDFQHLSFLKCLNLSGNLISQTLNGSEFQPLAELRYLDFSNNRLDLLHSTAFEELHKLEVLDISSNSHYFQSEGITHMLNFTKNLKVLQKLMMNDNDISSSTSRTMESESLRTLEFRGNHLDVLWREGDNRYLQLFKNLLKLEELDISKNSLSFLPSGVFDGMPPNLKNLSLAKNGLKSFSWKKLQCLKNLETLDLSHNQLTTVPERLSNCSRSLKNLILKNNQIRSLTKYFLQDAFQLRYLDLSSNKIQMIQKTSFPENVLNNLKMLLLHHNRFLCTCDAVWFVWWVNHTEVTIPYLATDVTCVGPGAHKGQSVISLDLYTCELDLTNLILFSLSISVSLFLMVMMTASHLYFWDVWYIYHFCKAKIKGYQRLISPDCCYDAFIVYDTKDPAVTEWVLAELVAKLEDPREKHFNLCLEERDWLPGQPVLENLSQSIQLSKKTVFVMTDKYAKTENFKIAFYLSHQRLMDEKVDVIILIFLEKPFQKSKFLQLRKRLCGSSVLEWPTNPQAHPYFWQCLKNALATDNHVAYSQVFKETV
The test can be described thus: Agonist activity at TLR7 (unknown origin) expressed in HEK-Blue cells. The test is classed as cell-based.

The target of test [2] is T2, Toll-like receptor 8 (Homo sapiens, UniProt Q9NR97).
T2 sequence (Q9NR97 whole entry): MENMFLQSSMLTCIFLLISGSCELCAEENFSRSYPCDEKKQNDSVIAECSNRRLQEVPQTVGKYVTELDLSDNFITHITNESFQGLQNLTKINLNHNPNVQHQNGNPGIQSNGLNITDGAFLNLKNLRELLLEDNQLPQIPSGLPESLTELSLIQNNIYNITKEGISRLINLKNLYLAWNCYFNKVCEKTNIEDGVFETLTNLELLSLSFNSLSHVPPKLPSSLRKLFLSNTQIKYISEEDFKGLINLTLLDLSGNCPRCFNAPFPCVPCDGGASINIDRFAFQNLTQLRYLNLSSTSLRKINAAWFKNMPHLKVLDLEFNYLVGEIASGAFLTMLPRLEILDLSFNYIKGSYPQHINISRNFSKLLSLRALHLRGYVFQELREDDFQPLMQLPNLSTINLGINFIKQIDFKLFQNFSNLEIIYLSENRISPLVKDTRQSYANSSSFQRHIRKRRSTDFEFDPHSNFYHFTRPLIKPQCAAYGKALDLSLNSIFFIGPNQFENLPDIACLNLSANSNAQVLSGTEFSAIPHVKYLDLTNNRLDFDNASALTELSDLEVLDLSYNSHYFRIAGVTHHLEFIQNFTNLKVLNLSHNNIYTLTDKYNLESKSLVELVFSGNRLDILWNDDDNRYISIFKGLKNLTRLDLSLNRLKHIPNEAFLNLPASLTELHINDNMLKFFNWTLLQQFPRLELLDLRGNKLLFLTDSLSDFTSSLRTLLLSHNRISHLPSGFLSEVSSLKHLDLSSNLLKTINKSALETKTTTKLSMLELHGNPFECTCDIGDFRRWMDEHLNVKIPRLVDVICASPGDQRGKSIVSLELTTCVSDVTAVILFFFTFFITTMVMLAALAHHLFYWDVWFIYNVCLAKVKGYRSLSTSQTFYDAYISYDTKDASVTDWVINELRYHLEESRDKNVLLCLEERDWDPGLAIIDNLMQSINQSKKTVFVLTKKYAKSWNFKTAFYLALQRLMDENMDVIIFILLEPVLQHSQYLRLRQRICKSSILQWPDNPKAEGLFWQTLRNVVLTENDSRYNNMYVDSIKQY
The test can be described thus: Agonist activity at TLR8 (unknown origin) expressed in HEK-Blue cells. The test is classed as cell-based.

One may read the EC50 as the concentration that produces a half-maximal response. The low end stands for a more potent agent, the high end for a less potent agent.

SMILES strings stand for the structures.

In the case of `CCC(=O)N(CC)Cc1nc2c(N)nc3cc(-c4ccn[nH]4)ccc3c2n1CC`, the concentration giving a half-maximal response (EC50) in test [1] and in test [2] was more than 100 µM in each case.
`Nc1nc2cc(-c3cccs3)ccc2c2[nH]c(CN3CCCC3=O)nc12`: the EC50 in test [1] and in test [2] was more than 100 µM in each case.
As for `CCN(Cc1nc2c(N)nc3cc(-c4ccccc4)ccc3c2[nH]1)C(C)=O`, the EC50 in test [1] and in test [2] was more than 100 µM in each case.
Consider `Cc1ccc(-c2ccc3c(c2)nc(N)c2nc(CN4CCCC4=O)[nH]c23)cc1`, for which the EC50 in test [1] and in test [2] was more than 100 µM in each case.
Consider `CCN(Cc1nc2c(N)nc3cc(-c4cc[nH]n4)ccc3c2n1C)C(=O)OC(C)(C)C`, for which the EC50 in test [1] and in test [2] was more than 100 µM each time.
With `Nc1nc2cc(-c3ccccc3F)ccc2c2[nH]c(CN3CCCC3=O)nc12`, the 50% effective concentration (EC50) in test [1] and in test [2] was more than 100 µM throughout.
As for `CCn1c(CN2CCCC2=O)nc2c(N)nc3cc(-c4cccs4)ccc3c21`, the 50% effective concentration (EC50) in test [1] and in test [2] was more than 100 µM each time.
On to `CCN(C)Cc1nc2c(N)nc3cc(-c4cc[nH]n4)ccc3c2[nH]1`, for which the EC50 in test [1] and in test [2] was more than 100 µM in each case.
`CCN(Cc1nc2c(N)nc3cc(C4=CCCC4)ccc3c2[nH]1)C(C)=O`: the EC50 in test [1] and in test [2] was more than 100 µM throughout.
In the case of `Nc1nc2cc(-n3cccn3)ccc2c2[nH]c(CN3C[C@H](c4ccccc4)CC3=O)nc12`, the half-maximal effective concentration (EC50) in test [1] and in test [2] was more than 100 µM each time.
As to `Cc1cccc(-c2ccc3c(c2)nc(N)c2nc(CN4CCCC4=O)[nH]c23)c1`, the EC50 in test [1] and in test [2] was more than 100 µM throughout.
Take `Nc1nc2cc(-c3ccccc3)ccc2c2[nH]c(CN3CCCC3=O)nc12`: the 50% effective concentration (EC50) in test [1] and in test [2] was more than 100 µM in each case.

For the origin of these results see ChEMBL document CHEMBL4265998, “NLRP3 Modulators for the Treatment of Autoinflammatory Disorders” (ACS Med Chem Lett, 2018).
